The results in this text go back to ChEMBL document CHEMBL4602653, “Neuraminidase-triggered activation of prodrug-type substrate of 4-nitroaniline” (Bioorg Med Chem Lett, 2020).

Holding throughout (assay type): ADME
Common to all, as to details: isolated protein, 6000 µM

A short description of data set [1]: Drug metabolism assessed as Clostridium perfringens neuraminidase-mediated drug decomposition resulting in formation of beta-H3-(equitorial)-N-acetyl-neuraminic acid at 2.21 ppm at 6 mM measured over 10 hrs by 1H-NMR analysis.
The nature of data set [2]: Drug metabolism assessed as Clostridium perfringens neuraminidase-mediated drug decomposition by measuring ratio of alpha-H3-(axial)-N-acetyl-neuraminic acid to beta-H3-(axial)-N-acetyl-neuraminic acid at 6 mM measured over 10 hrs by 1H-NMR analysis.
Data set [3] is described as follows: Drug metabolism assessed as Clostridium perfringens neuraminidase-mediated drug decomposition resulting in formation of alpha-H3-(axial)-N-acetyl-neuraminic acid at 1.83 ppm at 6 mM measured over 10 hrs by 1H-NMR analysis.
Data set [4] can be described thus: Drug metabolism assessed as Clostridium perfringens neuraminidase-mediated formation of para-quinone methide by measuring 4-hydroxy benzyl alcohol formation at 6.90 to 7.29 ppm at 6 mM measured after 10 hrs by 1H-NMR analysis.
The nature of data set [5]: Drug metabolism assessed as Clostridium perfringens neuraminidase-mediated formation of free N-acetyl-neuraminic acid at 6 mM measured after 75 hrs by 1H-NMR analysis.
A short description of data set [6]: Drug metabolism assessed as Clostridium perfringens neuraminidase-mediated drug decomposition resulting in formation of alpha-H3-(axial)-N-acetyl-neuraminic acid at 1.62 ppm at 6 mM measured over 10 hrs by 1H-NMR analysis.
Data set [7] can be described thus: Drug metabolism assessed as Clostridium perfringens neuraminidase-mediated drug decomposition resulting in formation of alpha-H3-(equitorial)-N-acetyl-neuraminic acid at 2.74 ppm at 6 mM measured over 10 hrs by 1H-NMR analysis.
Data set [8] in a line: Drug metabolism assessed as Clostridium perfringens neuraminidase-mediated drug decomposition by measuring ratio of alpha-H3-(equitorial)-N-acetyl-neuraminic acid to beta-H3-(equitorial)-N-acetyl-neuraminic acid at 6 mM measured over 10 hrs by 1H-NMR analysis.

In the case of `CC(=O)N[C@H]1[C@H]([C@H](O)[C@H](O)CO)OC(Oc2ccc(COC(=O)Nc3ccc([N+](=O)[O-])cc3)cc2)(C(=O)O)C[C@@H]1O` (stereo partly drawn), the Drug metabolism entry in data set [1], in data set [3], in data set [4], in data set [5], in data set [6] and in data set [7] was “Metabolite_Detected” in each case. Further, the Ratio worked out at 92.4 in data set [2] and 7.6 in data set [8].
